SMILES strings stand for the structures. Bounds are passed on as bounds.

For one experiment, the target named is T1, human calcium receptor (Homo sapiens, UniProt P41180).
T1 construct: expressed in transfected cells; host or cells: HEK 293 4.0-7
T1 sequence (P41180 20-1078): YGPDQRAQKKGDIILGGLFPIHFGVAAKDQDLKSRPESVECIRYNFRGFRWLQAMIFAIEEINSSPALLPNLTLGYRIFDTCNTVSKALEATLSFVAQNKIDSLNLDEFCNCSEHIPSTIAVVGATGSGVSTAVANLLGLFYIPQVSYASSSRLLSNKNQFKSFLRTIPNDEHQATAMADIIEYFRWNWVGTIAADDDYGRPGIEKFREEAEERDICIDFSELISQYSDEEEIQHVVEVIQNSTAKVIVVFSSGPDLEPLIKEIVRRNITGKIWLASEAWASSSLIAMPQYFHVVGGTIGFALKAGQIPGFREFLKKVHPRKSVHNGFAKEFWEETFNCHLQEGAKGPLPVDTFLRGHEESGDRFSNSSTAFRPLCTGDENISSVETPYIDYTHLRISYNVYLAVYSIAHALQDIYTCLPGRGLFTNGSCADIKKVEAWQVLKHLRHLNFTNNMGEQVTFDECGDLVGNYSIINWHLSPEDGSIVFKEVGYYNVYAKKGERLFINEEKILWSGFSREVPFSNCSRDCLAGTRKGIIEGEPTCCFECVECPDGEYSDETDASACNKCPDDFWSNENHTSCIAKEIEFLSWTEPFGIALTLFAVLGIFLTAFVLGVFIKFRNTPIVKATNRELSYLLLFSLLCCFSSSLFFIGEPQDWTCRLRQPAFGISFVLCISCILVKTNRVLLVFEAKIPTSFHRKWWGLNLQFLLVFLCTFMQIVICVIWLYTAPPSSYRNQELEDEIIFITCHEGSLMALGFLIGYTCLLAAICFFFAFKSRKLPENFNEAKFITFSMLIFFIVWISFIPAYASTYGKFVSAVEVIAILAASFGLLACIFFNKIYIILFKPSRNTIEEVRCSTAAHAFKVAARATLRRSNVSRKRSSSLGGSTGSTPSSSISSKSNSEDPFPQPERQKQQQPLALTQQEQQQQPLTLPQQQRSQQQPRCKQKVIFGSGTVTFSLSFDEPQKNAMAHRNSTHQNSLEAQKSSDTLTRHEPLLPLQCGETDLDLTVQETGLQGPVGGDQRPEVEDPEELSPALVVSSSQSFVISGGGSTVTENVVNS
In words: Calcium Receptor Inhibitor Assay (block of intracellular Ca2+ increase elicited by extracellular Ca2+, fluo-3). It counts as cell-based. The following applies: HEK 293 4.0-7 cells stably expressing the human calcium receptor; 10 uM was the limit of the assay; read-out: IC50 for blocking increases of intracellular Ca2+ elicited by extracellular Ca2+. The method, then:
Calcilytic activity was measured by determining the IC50 of the test compound for blocking increases of intracellular Ca^2+ elicited by extracellular Ca^2+ in HEK 293 4.0-7 cells stably expressing the human calcium receptor. HEK 293 4.0-7 cells were constructed as described by Rogers et al., J. Bone Miner. Res. 10 Suppl. 1:S483, 1995 (hereby incorporated by reference to the extent required to conduct the present assay). Intracellular Ca^2+ increases were elicited by increasing extracellular Ca^2+ from 1 to 1.75 mM. Intracellular Ca^2+ was measured using fluo-3, a fluorescent calcium indicator.
Cells were maintained in T-150 flasks in selection media (DMEM supplemented with 10% fetal bovine serum and 200 ug/mL hygromycin B), under 5% CO2:95% air at 37° C. and were grown up to 90% confluency. The medium was decanted and the cell monolayer was washed twice with phosphate-buffered saline (PBS) kept at 37° C. After the second wash, 6 mL of 0.02% EDTA in PBS was added and incubated for 4 minutes at 37° C. Following the incubation, cells were dispersed by gentle agitation. Cells from 2 or 3 flasks were pooled and pelleted (100×g). The cellular pellet was resuspended in 10-15 mL of SPF-PCB+ and pelleted again by centrifugation. This washing was done twice.
Sulfate- and phosphate-free parathyroid cell buffer (SPF-PCB) contained 20 mM Na-Hepes, pH 7.4, 126 mM NaCl, 5 mM KCl, and 1 mM MgCl2. SPF-PCB was made up and stored at 4° C. On the day of use, SPF-PCB was supplemented with 1 mg/mL of D-glucose and 1 mM CaCl2 and then split into two fractions. To one fraction, bovine serum albumin (BSA; fraction V, ICN) was added at 5 mg/mL (SPF-PCB+). This buffer was used for washing, loading and maintaining the cells. The BSA-free fraction was used for diluting the cells in the cuvette for measurements of fluorescence.
The pellet was resuspended in 10 mL of SPF-PCB+ containing 2.2 uM fluo-3 (Molecular Probes) and incubated at room temperature for 35 minutes. Following the incubation period, the cells were pelleted by centrifugation. The resulting pellet was washed with SPF-PCB+. After this washing, cells were resuspended in SPF-PCB+ at a density of 1-2×10^6 cells/mL.
For recording fluorescent signals, 300 uL of cell suspension were diluted in 1.2 mL of SPF buffer containing 1 mM CaCl2 and 1 mg/mL of D-glucose. Measurements of fluorescence were performed at 37° C. with constant stirring using a spectrofluorimeter. Excitation and emission wavelengths were measured at 485 and 535 nm, respectively. To calibrate fluorescence signals, digitonin (5 mg/mL in ethanol) was added to obtain Fmax, and the apparent Fmin was determined by adding Tris-EGTA (2.5 M Tris-Base, 0.3 M EGTA). The concentration of intracellular calcium was calculated using the following equation: Intracellular calcium=[…]; where Kd=400 nM.
To determine the potential calcilytic activity of test compounds, cells were incubated with test compound (or vehicle as a control) for 90 seconds before increasing the concentration of extracellular Ca^2+ from 1 to 2 mM. Calcilytic compounds were detected by their ability to block, in a concentration-dependent manner, increases in the concentration of intracellular Ca^2+ elicited by extracellular Ca^2+.

Experiment [1] addresses T2, Human Parathyroid Calcium Receptor (“HuPCaR”) (Homo sapiens, UniProt P41180).
T2 construct: expressed in transfected cells; host or cells: HEK 293 4.0-7 (plasma membrane preparation)
T2 sequence (P41180 20-1078): T1 sequence (P41180 20-1078)
Briefly: Calcium Receptor Binding Assay (3H ligand displacement, HEK 293 4.0-7 membranes). The settings on record: 2 nM 3H compound, 4° C. 30 min, 10 uM was the limit of the assay. The method, then: HEK 293 4.0-7 cells stably transfected with the Human Parathyroid Calcium Receptor (“HuPCaR”) were scaled up in T180 tissue culture flasks. Plasma membrane was obtained by polytron homogenization or glass douncing in buffer (50 mM Tris-HCl pH 7.4, 1 mM EDTA, 3 mM MgCl2) in the presence of a protease inhibitor cocktail containing 1 uM Leupeptin, 0.04 uM Pepstatin, and 1 mM PMSF. Aliquoted membrane was snap frozen and stored at −80° C. ^3H labeled compound was radiolabeled to a radiospecific activity of 44 Ci/mmole and was aliquoted and stored in liquid nitrogen for radiochemical stability.
A typical reaction mixture contained 2 nM ^3H compound ((R,R)—N-4′-Methoxy-t-3-3′-methyl-1′-ethylphenyl-1-(1-naphthyl)ethylamine), or ^3H compound (R)—N-[2-Hydroxy-3-(3-chloro-2-cyanophenoxy)propyl]-1,1-dimethyl-2-(4-methoxyphenyl)ethylamine with 4-10 ug membrane in homogenization buffer containing 0.1% gelatin and 10% EtOH in a reaction volume of 0.5 mL. Incubation was performed in 12×75 polyethylene tubes in an ice water bath. To each tube 25 uL of test sample in 100% EtOH was added, followed by 400 uL of cold incubation buffer, and 25 uL of 40 nM ^3H-compound in 100% EtOH for a final concentration of 2 nM. The binding reaction was initiated by the addition of 50 uL of 80-200 ug/mL HEK 293 4.0-7 membrane diluted in incubation buffer, and allowed to incubate at 4° C. for 30 min. Wash buffer was 50 mM Tris-HCl containing 0.1% PEI. Nonspecific binding was determined by the addition of 100-fold excess of unlabeled homologous ligand, and was generally 20% of total binding. The binding reaction was terminated by rapid filtration onto 1% PEI pretreated GF/C filters using a Brandel Harvestor. Filters were placed in scintillation fluid and radioactivity assessed by liquid scintillation counting.

Take `CC(C)(Cc1ccc(Br)cc1)NC[C@@H](O)c1cc(CCC(=O)O)cc(F)c1F` [Example 23, 3-[3-((1S)-2-{[2-(4-bromophenyl)-1,1-dimethylethyl]amino}-1-hydroxyethyl)-4,5-difluorophenyl]propanoic acid]: the IC50 on human calcium receptor was > 10 µM.

Regarding `CC(C)(Cc1ccccc1)NC[C@@H](O)c1cc(CCC(=O)O)cc(F)c1F` [Example 13, 3-(3-{(1S)-2-[(1,1-dimethyl-2-phenylethyl)amino]-1-hydroxyethyl}-4,5-difluorophenyl)propanoic acid], the IC50 in experiment [1] is > 10 µM.

For the compound `Cc1ccc(CC(C)(C)NC[C@@H](O)c2cc(CCC(=O)O)cc(F)c2F)cc1F` [Example 18, 3-[3,4-difluoro-5-((1S)-2-{[2-(3-fluoro-4-methylphenyl)-1,1-dimethylethyl]amino}-1-hydroxyethyl)phenyl]propanoic acid], at human calcium receptor, the IC50 was > 10 µM.

For the compound `CC(C)(Cc1ccc(Cl)s1)NC[C@@H](O)c1cc(CCC(=O)O)cc(F)c1F` [Example 24, 3-[3-((1S)-2-{[2-(5-chloro-2-thienyl)-1,1-dimethylethyl]amino}-1-hydroxyethyl)-4,5-difluorophenyl]propanoic acid], the concentration for half-maximal inhibition (IC50) on human calcium receptor was > 10 µM.

On to `CSc1ccc(CC(C)(C)NC[C@@H](O)c2cc(CCC(=O)O)cc(F)c2F)cc1` [Example 19, 3-{3-[(1S)-2-({1,1-dimethyl-2-[4-(methylthio)phenyl]ethyl}amino)-1-hydroxyethyl]-4,5-difluorophenyl}propanoic acid], for which the IC50 at human calcium receptor was > 10 µM. In the case of `Cc1ccc(CC(C)(C)NC[C@@H](O)c2cc(CCC(=O)O)cc(F)c2F)s1` [Example 16, 3-[3-((1S)-2-{[1,1-dimethyl-2-(5-methyl-2-thienyl)ethyl]amino}-1-hydroxyethyl)-4,5-difluorophenyl]propanoic acid], on human calcium receptor, the IC50 was > 10 µM.

In the case of `CC(C)(Cc1ccc(C(C)(C)C)cc1)NC[C@@H](O)c1cc(CCC(=O)O)cc(F)c1F` [Example 20, 3-{3-[(1S)-2-({2-[4-(1,1-dimethylethyl)phenyl]-1,1-dimethylethyl}amino)-1-hydroxyethyl]-4,5-difluorophenyl}propanoic acid], the IC50 at human calcium receptor is > 10 µM. In the case of `CC(C)(Cc1cccs1)NC[C@@H](O)c1cc(CCC(=O)O)cc(F)c1F` [Example 21, 3-[3-((1S)-2-{[1,1-dimethyl-2-(2-thienyl)ethyl]amino}-1-hydroxyethyl)-4,5-difluorophenyl]propanoic acid], the concentration for half-maximal inhibition (IC50) (in experiment [1]; on human calcium receptor) was > 10 µM each time. For the compound `CC(C)(CCc1ccccc1)NC[C@@H](O)c1cc(CCC(=O)O)cc(F)c1F` [Example 22, 3-(3-{(1S)-2-[(1,1-dimethyl-3-phenylpropyl)amino]-1-hydroxyethyl}-4,5-difluorophenyl)propanoic acid], the IC50 on human calcium receptor was > 10 µM. Regarding `COc1ccc(CCC(C)(C)NC[C@@H](O)c2cc(CCC(=O)O)cc(F)c2F)cc1` [Example 17, 3-{3-[(1S)-2-([1,1-dimethyl-3-[4-(methyloxy)phenyl]propyl}amino)-1-hydroxyethyl]-4,5-difluorophenyl]propanoic acid], the IC50 (in experiment [1]; on human calcium receptor) was > 10 µM each time.

One may read the IC50 as the point on the concentration scale where inhibition reaches its midpoint.

The values are drawn from patent US7902394B2, “Calcilytic compounds” (GlaxoSmithKline LLC, priority 2006, dated 2011).
